Data: patent US6258830A, “Stable gel formulation for topical treatment of skin conditions” (Allergan Sales, Inc., priority 1999, dated 2001)
≈ marks a conversion by molar mass, not a printed value.

How the values were obtained:
[1] = Stability of AGN formulations; assay type: physicochemical
[2] = Solubility of AGN in various aqueous solutions at 35° ± 0.5° C. (Table I); assay type: physicochemical
[3] = Treatment of acne and psoriasis; set-up: species or system humans; conditions: in vivo
[4] = Saturated solubility of AGN in the vehicle of the gels (HPLC), with Student's t-test against gel B; assay type: physicochemical; conditions: for solubility: gel vehicle with propionic acid, propionic acid for carbomer
Description: To determine the saturated solubility of the drug in the vehicle of each of the 18 gel formulations, solvent systems containing the same ingredients as the gels were prepared. The saturated solubility was determined once in solutions of the vehicle without carbomer and base, and another time by substituting propionic acid for carbomer in order to ease filtration of the solution while keeping the ionic strength of the solution as close to that of the gel as possible. The solutions were filtered through a 0.45 μm filter to remove any crystals which may have formed. The resulting solutions were then diluted and their drug content was assayed using High Performance Liquid Chromatography (HPLC) as described in Method HL036.
(§1) The saturated solubility values, and slopes of the line obtained from the plot of % drug released vs. square root of time for each gel were analyzed statistically. […] RS/Discover® was used to calculate equations which fit the data and to construct response surfaces.

[5] = In vitro release of AGN from the 0.1% gels, slope of % drug released vs. square root of time; assay type: physicochemical; conditions: Table XVIII, beyond release of 10% of the drug
Description: The release of AGN through each of the 0.1% gels was studied using a previously developed release method. The collected fractions were then assayed directly using HPLC Method HL036.
The data generated from the assay of the collected fractions for each gel were used to plot the release profile of the drug as the % drug released vs. square root of time. For each release profile, the slope of the linear region containing at least 6 points was calculated using linear regression. The standard deviation and correlation coefficient of each slope was also calculated.
as §1
Drug release was studied from all […] formulated gels as described previously. The release profiles for each gel were an average of six runs, and were plotted as % Drug released vs. Square root of time.
In order to compare the release rates of drug from each formulation, the slope of the linear portion of the plot of % Drug released vs. Square root of time was computed for each of the 18 gels. The slope for each plot was obtained as an average of six runs and based on a correlation coefficient (R^2)>0.94800.

[6] = Solubility of AGN in PEG 400; assay type: physicochemical; conditions: peg 400, organic solvent or mixture

- stabilization of alcoholic solutions containing AGN ([1]; alcoholic solutions with BHT (preformulation report)): stabilized by BHT
- stability of laboratory formulation of AGN ([1]; prepared without ascorbic acid): poor stability
- solubility ([2]; 0.07% Polysorbate 40, 35° C.): 3.7 ± 0.6 µg/mL (≈ 10.5 µM)
- solubility ([2]; 0.15% Polysorbate 40, 35° C.): 9.2 ± 1.4 µg/mL (≈ 26.2 µM)
- solubility ([2]; 0.30% Polysorbate 40, 35° C.): 18.3 ± 1.8 µg/mL (≈ 52.1 µM)
- solubility ([2]; 0.50% Polysorbate 40, 35° C.): 33.2 ± 0.3 µg/mL (≈ 94.5 µM)
- solubility ([2]; 1% Oleth-20/Water, 35° C.): 73.3 ± 3 µg/mL (≈ 209 µM)
- solubility ([2]; 2% Oleth-20/Water, 35° C.): 149.2 ± 0.6 µg/mL (≈ 425 µM)
- solubility ([2]; 4% Oleth-20/Water, 35° C.): 311 ± 7 µg/mL (≈ 885 µM)
- Avg. Solubility ([2]; 20% Ethanol/Water, 35° C.): Not Detected
- Avg. Solubility ([2]; 20% PEG-400/Water, 35° C.): Not Detected
- solubility ([2]; 96% Oleth-20/Water, 35° C.): 435.2 ± 1.1 µg/mL (≈ 1240 µM)
- Avg. Solubility ([2]; 100% Water, 35° C.): Not Detected
- solubility ([2]; organic solvent or mixture, 40% Ethanol/Water, 35° C.): 147 ± 20.9 µg/mL (≈ 419 µM)
- solubility ([2]; organic solvent or mixture, 40% PEG-400/Water, 35° C.): 4.4 ± 0.5 µg/mL (≈ 12.5 µM)
- solubility ([2]; organic solvent or mixture, 60% Ethanol/Water, 35° C.): 22235 ± 7.8 µg/mL (≈ 63300 µM)
- solubility ([2]; organic solvent or mixture, 60% PEG-400/Water, 35° C.): 89.6 ± 1.1 µg/mL (≈ 255 µM)
- solubility ([2]; organic solvent or mixture, 80% Ethanol/Water, 35° C.): 8220 ± 221 µg/mL (≈ 23400 µM)
- solubility ([2]; organic solvent or mixture, 80% PEG-400/Water, 35° C.): 2160 ± 89.9 µg/mL (≈ 6150 µM)
- solubility in water (in words) ([2]; water): extremely low
- drug present in the aqueous based gel in the form of solid particles ([4]; from solubility data): approximately 90%
- solubility ([4]; hexylene glycol 0%, polysorbate 40 0.0%, poloxamer 407 0.0%): 14.5 ± 0.3 µg/mL (≈ 41.3 µM)
- solubility ([4]; hexylene glycol 0%, polysorbate 40 0.0%, poloxamer 407 0.2%): 67.9 ± 4.4 µg/mL (≈ 193 µM)
- solubility ([4]; hexylene glycol 0%, polysorbate 40 0.0%, poloxamer 407 0.4%): 87.4 ± 6.6 µg/mL (≈ 249 µM)
- solubility ([4]; hexylene glycol 0%, polysorbate 40 0.2%, poloxamer 407 0.0%): 52.3 ± 2.7 µg/mL (≈ 149 µM)
- solubility ([4]; hexylene glycol 0%, polysorbate 40 0.2%, poloxamer 407 0.2%): 69.7 ± 3.2 µg/mL (≈ 198 µM)
- solubility ([4]; hexylene glycol 0%, polysorbate 40 0.2%, poloxamer 407 0.4%): 80 ± 4 µg/mL (≈ 228 µM)
- solubility ([4]; hexylene glycol 0%, polysorbate 40 0.4%, poloxamer 407 0.0%): 89.3 ± 8.8 µg/mL (≈ 254 µM)
- solubility ([4]; hexylene glycol 0%, polysorbate 40 0.4%, poloxamer 407 0.2%): 77.5 ± 0.8 µg/mL (≈ 221 µM)
- solubility ([4]; hexylene glycol 0%, polysorbate 40 0.4%, poloxamer 407 0.4%): 86.7 ± 6 µg/mL (≈ 247 µM)
- solubility ([4]; hexylene glycol 2%, polysorbate 40 0.0%, poloxamer 407 0.0%): 20.9 ± 1.7 µg/mL (≈ 59.5 µM)
- solubility ([4]; hexylene glycol 2%, polysorbate 40 0.0%, poloxamer 407 0.2%): 73.7 ± 9 µg/mL (≈ 210 µM)
- solubility ([4]; hexylene glycol 2%, polysorbate 40 0.0%, poloxamer 407 0.4%): 86.3 ± 2.6 µg/mL (≈ 246 µM)
- solubility ([4]; hexylene glycol 2%, polysorbate 40 0.2%, poloxamer 407 0.0%): 75.9 ± 3.5 µg/mL (≈ 216 µM)
- solubility ([4]; hexylene glycol 2%, polysorbate 40 0.2%, poloxamer 407 0.2%): 93.8 ± 0.1 µg/mL (≈ 267 µM)
- solubility ([4]; hexylene glycol 2%, polysorbate 40 0.2%, poloxamer 407 0.4%): 102 ± 2.9 µg/mL (≈ 290 µM)
- solubility ([4]; hexylene glycol 2%, polysorbate 40 0.4%, poloxamer 407 0.0%): 98 ± 11.7 µg/mL (≈ 279 µM)
- solubility ([4]; hexylene glycol 2%, polysorbate 40 0.4%, poloxamer 407 0.2%): 130 ± 6.2 µg/mL (≈ 370 µM)
- solubility ([4]; hexylene glycol 2%, polysorbate 40 0.4%, poloxamer 407 0.4%): 118 ± 3.8 µg/mL (≈ 336 µM)
- rate of drug release over time [5]: remains constant even after three hours
- solubility [6]: 2200 µg/mL (≈ 6260 µM)
Compound: CCOC(=O)c1ccc(C#Cc2ccc3c(c2)C(C)(C)CCS3)nc1 [AGN]
- activity in the treatment of acne and psoriasis [3]: active in the treatment of acne and psoriasis
